# According to a melting point compilation (Tetko et al.; mined from patent text by program, amines drawn as free bases though some values may be those of a salt):
row,melting point,SMILES
1,204 to 206 °C,O=[N+]([O-])c1cccc2c(O)ccnc12
2,127 °C,CN1CCCC(OC(=O)Nc2ccc(Br)cc2)C1 (stereo not drawn)
3,107 to 110 °C,COC(=O)C(Oc1cccc2ccccc12)c1ccc(Oc2ccc(Cl)cc2)cc1 (stereo not drawn)
4,138 to 139 °C,COC(c1ccc(NC(=O)c2c(C(F)(F)F)nn(C)c2C)cc1CC(C)C)(C(F)(F)F)C(F)(F)F
5,70 °C,CCCCCCCCCCC(C(=O)CCCCO)P(=O)(c1ccccc1)c1ccccc1 (stereo not drawn)
6,166 to 168 °C,CCOCc1nc(N)c2nc(C)cnc2n1
7,93 to 95 °C,COC(=O)C1Oc2ccccc2Cc2ccc(OC)cc2O1 (stereo not drawn)
8,61.5 to 64 °C,CCCCC(=O)C(=C1NCCCS1)[N+](=O)[O-]
9,98 to 99 °C,CCc1noc(-c2ncn(-c3cccc(O)c3)c2COC)n1
10,188 to 189 °C,Cc1cc(O)cc(O)c1C(=O)NNC(=O)C(O)c1ccccc1 (stereo not drawn)
11,271 to 274 °C,Cc1cc(Cn2cccn2)cc2c1Cc1c(-c3ccsc3)n[nH]c1-2
12,166 to 167 °C,Cc1ncccc1NC(=NC#N)NC(NC(=O)Cc1ccc(F)cc1)C(C)(C)C (stereo not drawn)
13,245 to 247 °C,O=C1CCC(N2C(=O)c3cccc(OCc4ccc(Cl)c(Cl)c4)c3C2=O)C(=O)N1 (stereo not drawn)
14,251 to 253 °C,O=C1NC(=O)C2(C(=O)N(Cc3ccc(Cl)c(Cl)c3)c3ccccc32)N1C(=O)c1ccccc1 (stereo not drawn)
15,56 °C,c1ccc(C(OC2CCNCC2)c2ccccc2)cc1
16,120 to 122 °C,c1ccc(COc2ccc(CCOc3ccc(CCNc4ncnc5nccnc45)cc3)cc2)cc1
17,255 °C,Cc1cc(-c2ccc(C#N)cc2)nc(-c2cccc(-c3cccc(S(N)(=O)=O)c3)n2)n1
18,179 to 181 °C,Nc1ncc(CCCc2cccc3ccccc23)c(N)n1
19,172 to 177 °C,CC(C)c1cc(Cl)cc(C(C)C)c1NC(=O)NS(=O)(=O)c1cccc(S(N)(=O)=O)c1
20,242 to 245 °C,O=C(Oc1ccc(O)cc1)c1ccc(O)cc1
21,166 to 168 °C,CCOCc1cc(O)cc2cc(-c3ccc(O)cc3)oc12
22,163 °C,CC(CN1CCCC1)N1c2ccccc2Sc2ccc(C(=O)Nc3ccccc3)cc21 (racemic)
23,68 °C,CCC1(CCO)OCCc2c1[nH]c1c(C)cccc21 (stereo not drawn)
24,60 to 72 °C,Cc1ccc(C)c(Oc2ccc(C#N)cc2S(=O)(=O)N2CCNCC2)c1

row,melting point,SMILES
1,140 to 145 °C,O=C(CCCCCCCCCCCCC(=O)Oc1cc(O)cc(O)c1)Oc1cc(O)cc(O)c1
2,230 to 232 °C,CCc1[nH]n(C2CCCC2)c2nc(-c3cccc(OCc4ccncc4)c3)nc(=O)c1-2
3,138 to 139 °C,N#Cc1cc(NCc2cc3c(cc2O)CCO3)cs1
4,218 to 219 °C,CCCCOc1nc(N)c2[nH]c(=O)n(CCCNS(=O)(=O)c3cccc(CC(=O)OC)c3)c2n1
5,147 to 150 °C,O=C(O)/C=C/c1ccc(OCCOC2CC2)cc1Oc1ncc(C(F)(F)F)cc1Cl
6,235 to 237 °C,O=C(Oc1ccc(C(=O)c2ccc(Cl)cc2)cc1)Oc1ccc(C(=O)c2ccc(Cl)cc2)cc1
7,175 to 177 °C,O/N=C(/CCN1CCN(c2ncccn2)CC1)c1ccccc1
8,212 to 214 °C,COc1cc(OCc2ccccn2)ccc1/C=C/c1cc(/C=C/c2ccc3ccn(S(C)(=O)=O)c3c2)n[nH]1
9,160 to 161 °C,CC1CC(C)OP(=O)(Cc2ccc(N)cc2)O1 (stereo not drawn)
10,162 °C,O=C(O)CCCCCCCn1c(-c2ccccc2)nc(-c2ccccc2)c1-c1ccccc1
11,94 to 96 °C,CCCCn1nc(-c2cc(C(C)(C)C)c(O)c(C(C)(C)C)c2)c2cccnc21
12,162 to 164 °C,O=c1cc(CN2CCOCC2)oc(-c2ccc(O)cc2)c1
13,68 to 71 °C,CC(C)(C)NC(=O)[C@@H]1CSCN1
14,115 to 116 °C,COc1nc(C)n2nc(SCc3ccccc3)nc2c1Cl
15,91 to 93 °C,Cc1cccc(-n2c(Cn3ccnc3)nc3ccccc32)c1
16,201 to 205 °C,Cc1ccc(S(=O)(=O)NC(=O)C(C)c2ccc3cc(OCc4ccc5ccccc5n4)ccc3c2)cc1 (stereo not drawn)
17,132 to 133 °C,COP(=O)(CC(COc1cccc(C(F)(F)F)c1)=NNC(N)=O)OC
18,84 to 86 °C,Clc1nc2ccccc2cc1C=C1CCCC1
19,271 to 272 °C,CS(=O)(=O)c1cnc(NC(=O)c2cccc(O)c2)s1
20,159 °C,O=C(NO)c1cnc(N2CCN(S(=O)(=O)c3ccc(C(=O)Nc4ccc(Cl)c(-c5ccccn5)c4)cc3Cl)CC2)nc1
21,155 to 158 °C,COCNC(=O)NC1CCC(=O)c2sccc21 (stereo not drawn)
22,113 to 116 °C,CCC=C(c1ccccc1N1CCCC(C)(C)C1)C(C(N)=O)c1ccc(C(=O)OCC)cc1 (stereo not drawn)
23,210 to 212 °C,CCn1c(=O)ccc2cnc(Nc3cccc(F)c3)nc21
24,166 °C,CC(=O)NCc1cncn1C1c2ccccc2CCC1(C)C (stereo not drawn)

row,melting point,SMILES
1,179 to 181 °C,CCCOc1ccccc1-c1nc2nc(SC)ncc2c(=O)[nH]1
2,34 to 35 °C,CC1(C(=O)n2ccnc2)CC1
3,243 to 244 °C,CC(C)n1nc(-c2sc(NC(=O)COc3ccccc3)nc2-c2ccccc2)ccc1=O
4,73 to 74 °C,CCCCCCCCCCCCCCCCCCOc1cc(N)cc(OC(C)=O)c1
5,118 °C,N#Cc1ccc(C(=O)c2cc(C(F)(F)F)ccc2O)cc1
6,60 to 65 °C,CCOC(=O)C(Cc1ccc2ccccc2c1Br)C(=O)OCC
7,245 to 247 °C,CCOC(=O)Nc1nc(-c2ccccc2)c(-c2nc3ccccc3c(=O)n2-c2ccccc2)s1
8,197 to 199 °C,O=C1CCOc2ccc(/C=C/c3nc4cc(F)ccc4s3)cc21
9,144 to 147 °C,CC(Br)C(=O)c1ccccc1NCC(=O)O (stereo not drawn)
10,96 to 98 °C,O=C1c2ccccc2S(=O)(=O)N1CF
11,> 300 °C,O=C(O)c1c2c(nc3ccc(F)cc13)-c1cc(F)c(-c3ccc(F)cc3)cc1CCC2
12,184 to 187 °C,Cc1c(F)c(F)c(C(=O)NC(C(C)C)C(C)C)c(F)c1F
13,160 to 172 °C,O=CC1c2cccc(Cl)c2C(C=O)c2cccc(Cl)c21 (stereo not drawn)
14,230 to 240 °C,CCCc1nc2ccnn2c(O)c1Cc1ccc(-c2ccccc2C(=O)O)cc1
15,209 to 211 °C,CCc1c(-c2ccc(OC)cc2)c2c(C(=O)O)c(C(=O)O)c3cc(OC)cc1n32
16,238 to 241 °C,NC(=O)[C@@H]1[C@H](Nc2c(Br)cnc3[nH]c(-c4ccsc4)nc23)[C@H]2C=C[C@@H]1C2
17,159 to 161 °C,O=S1(=O)NCc2cccc(Cl)c21
18,312 to 314 °C,CCc1cccc(C)c1CNc1cc(C(=O)O)cc2c1nc(C)n2C
19,72 to 75 °C,CCc1ccc(C)c(NC(=O)C(C)(C)C)n1
20,163 °C,COc1ccc(-c2ccccc2-c2c(Cl)nc3ncnn3c2Cl)c(Cl)c1
21,240 to 241 °C,NC(N)=NC(=O)c1ccc2c(c1)S(=O)(=O)CC2O (stereo not drawn)
22,109 to 110 °C,COCCOCCN1C(=O)C2(c3cc4c(cc3OC2OC)OCCO4)c2c(OC)cccc21 (stereo not drawn)
23,70 to 72 °C,COC(=O)CCC(=O)c1cc(OC)ccc1OCC(O)CNC(C)(C)C (stereo not drawn)
24,200 to 205 °C,COCC(OC(N)=O)c1nc2cc(F)c(OC(C)c3c(Cl)ccc(F)c3Cl)cc2s1 (stereo not drawn)

row,melting point,SMILES
1,182 to 183 °C,Nc1nnc(-c2ccc3occ(-c4cccc(OC(F)(F)F)c4)c3c2)o1
2,109 °C,CCCN(c1nc(-c2ccc(OC)cc2Cl)c(C)s1)c1cc(C(=O)O)ccc1OC
3,244 to 245 °C,CC(C)Cc1nc2sc3c(NCc4cccnc4)ncnc3c2c2c1COC(C)(C)C2
4,157 to 158 °C,CCOC(=O)c1c(CSc2nccn2CC)nc2cc(OC)c(OC)cc2c1-c1ccc(OC)c(OC)c1
5,168 °C,CC(CCCOc1ccc(C2=C(c3ccccc3)CCCc3cc(O)ccc32)cc1)S(=O)(=O)Cc1ccco1 (stereo not drawn)
6,259 °C,COc1ccc(C(=O)C2=C(O)C(=O)N(c3ccc(C)nn3)C2c2ccc(OC)cc2)cc1 (stereo not drawn)
7,208 to 211 °C,O=C(O)c1ccc(NCCOc2ccc3ccccc3c2)cc1
8,171 to 172 °C,CC1(c2ccc(Br)cc2)Cc2cc(OCC(=O)O)c(Cl)c(Cl)c2C1=O (stereo not drawn)
9,86.4 °C,CC(C)N(CCC(c1ccccc1)c1cc(CO)ccc1OCc1ccccc1)C(C)C (stereo not drawn)
10,169 to 170 °C,CCCc1c(O)c(C(C)=O)cc2c1N=C(C(=O)OC)CC2=O
11,140 to 141 °C,CCOC(=O)Cc1ccc(-c2nc(COc3ccc(COc4nn(-c5ccccc5)cc4/C=C/c4cn(CC)cn4)cc3OC)c(C)o2)cc1
12,85 °C,CNC(=O)C1CN(CC(=O)Nc2c(Cl)cc(C(C)=O)cc2Cl)CCN1CCCCN(c1ccc(F)cc1)c1ccc(F)cc1 (stereo not drawn)
13,152 to 155 °C,CC(Oc1ccccc1Cl)C(=O)OC1CC(O)C=C2C=CC(C)C(CCC3CC(O)CC(=O)O3)C21 (mixture of isomers)
14,72 to 73 °C,O=C1NCCc2ccc(OCCCCN3CCN(c4cccc5c4OCC5)CC3)nc2N1
15,90.5 to 93 °C,COC1=CC[C@H]2[C@@H]3CCc4cc(OC)ccc4[C@H]3CC[C@]12C
16,154 to 156 °C,CCOC(CN1CCN(c2cccc(-n3cnc4cc(C(C)=O)ccc43)c2)CC1)=NO
17,122 to 125 °C,Cn1c(CO)nc2cncnc21
18,161 °C,COc1ccc(OC)c(P(=O)(C(=O)c2c(C)cc(C)cc2C)C(=O)c2c(C)cc(C)cc2C)c1
19,114 °C,CCCCCNC(=O)N(C)c1ncc(-c2ccc(C[C@H](OCC)C(=O)O)cc2)s1
20,214 °C,Cc1c(-c2ccc(N3CCOC3=O)cc2)nc2n1CCc1ccccc1C2OC1CCN(C)CC1 (stereo not drawn)
21,78 to 80 °C,O=[N+]([O-])c1cnc(Cl)nc1
22,205 to 210 °C,O=C(NCc1ccc(Cl)cc1)c1cnc2sc(CO)cc2c1O
23,260 to 262 °C,Cc1c(C(=O)O)sc2ccc(CO)cc12

row,SMILES,melting point
1,Clc1cccc(Oc2ccc(N3CCNCC3)nc2)c1,70 to 73 °C
2,CCCCN1C(=O)CC(=O)N(c2ccccc2)c2cc(Cl)ccc21,159 to 161 °C
3,COC(=O)CCC(=O)CCl,8 to 13 °C
